Experimental data reported in patent US20260285850A1, “SUBSTITUTED OXAZOLIDINONES AND IMIDAZOLINONES AS HERBICIDES” (FMC CORPORATION, priority 2023, published 2026).

Key:
Format in all cases: in vivo
[1] = test system: barnyardgrass (Echinochloa crus-galli); experiment: Test A preemergence soil spray, visual injury rating 0-100; details: 10 days
Outline: (§1)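 Compound in a non-phytotoxic, surfactant-containing solvent is applied either as a directed soil spray before seedlings emerge or onto emerged plants 2-10 cm tall; pots hold a loam-sand blend. Plants grow 10 days under greenhouse conditions and are rated by eye against untreated controls (0 no effect, 100 complete control).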

[2] = test system: blackgrass (Alopecurus myosuroides); experiment: as above; details: 10 days
Outline: as §1

corn (Zea mays) [3] = experiment: as above; details: 10 days
Outline: as §1

[4] = test system: green foxtail (Setaria viridis); experiment: as above; details: 10 days
Outline: as §1

kochia (Bassia scoparia) [5] = experiment: as above; details: 10 days
Outline: as §1

[6] = test system: oat, wild (wild oat, Avena fatua); experiment: as above; details: 10 days
Outline: as §1

[7] = test system: palmer (palmer amaranth, palmer pigweed, Amaranthus palmeri); experiment: as above; details: 62 g ai/ha, 10 days, 0 = no effect, 100 = complete control
Outline: as §1

[8] = test system: ragweed (common ragweed, Ambrosia artemisiifolia); experiment: as above; details: 10 days
Outline: as §1

[9] = test system: ryegrass, Italian (italian ryegrass, Lolium multiflorum); experiment: as above; details: 10 days
Outline: as §1

soybean (Glycine max) [10] = experiment: as above; details: 10 days
Outline: as §1

[11] = test system: wheat (Triticum aestivum); experiment: as above; details: 10 days
Outline: as §1

[12] = test system: barnyardgrass (Echinochloa crus-galli); experiment: Test A postemergence application, visual injury rating 0-100
Excerpt: (§2) Seeds of plant species selected from barnyardgrass (Echinochloa crus-galli), blackgrass (Alopecurus myosuroides), corn (Zea mays), foxtail, giant (giant foxtail, Setaria faberi), green foxtail (Setaria viridis), goosegrass (Eleusine indica), kochia (Bassia scoparia), oat, wild (wild oat, Avena fatua), palmer (palmer amaranth, palmer pigweed, Amaranthus palmeri), ragweed (common ragweed, Ambrosia artemisiifolia), ryegrass, Italian (italian ryegrass, Lolium multiflorum), soybean (Glycine max) and wheat (Triticum aestivum) were planted into a blend of loam soil and sand and treated preemergence with a directed soil spray using test chemicals formulated in a non-phytotoxic solvent mixture which included a surfactant.
(§3) At the same time, plants selected from these crops and weed species and also galium (catchweed bedstraw, Galium aparine) and horseweed (Erigeron canadensis) were planted in pots containing the same blend of loam soil and sand and treated with postemergence applications of test chemicals formulated in the same manner. Plants ranged in height from 2 to 10 cm and were in the one- to two-leaf stage for the postemergence treatment. Treated plants and untreated controls were maintained in a greenhouse for 10 days, after which time all treated plants were compared to untreated controls and visually evaluated for injury. Plant response ratings, summarized in Table A, are based on a 0 to 100 scale where 0 is no effect and 100 is complete control. A dash (-) response means no test result.

[13] = test system: blackgrass (Alopecurus myosuroides); experiment: as above
Excerpt: as §2, §3

corn (Zea mays) [14] = experiment: as above
Excerpt: as §2, §3

[15] = test system: green foxtail (Setaria viridis); experiment: as above
Excerpt: as §2, §3

[16] = test system: horseweed (Erigeron canadensis); experiment: as above; details: 62 g ai/ha, postemergence, 10 days, 0 = no effect, 100 = complete control
Excerpt: as §2, §3

kochia (Bassia scoparia) [17] = experiment: as above
Excerpt: as §2, §3

[18] = test system: oat, wild (wild oat, Avena fatua); experiment: as above
Excerpt: as §2, §3

[19] = test system: palmer (palmer amaranth, palmer pigweed, Amaranthus palmeri); experiment: as above
Excerpt: as §2, §3

[20] = test system: ragweed (common ragweed, Ambrosia artemisiifolia); experiment: as above
Excerpt: as §2, §3

[21] = test system: ryegrass, Italian (italian ryegrass, Lolium multiflorum); experiment: as above
Excerpt: as §2, §3

soybean (Glycine max) [22] = experiment: as above
Excerpt: as §2, §3

[23] = test system: wheat (Triticum aestivum); experiment: as above
Excerpt: as §2, §3

[24] = test system: barnyardgrass (Echinochloa crusgalli); experiment: Test B flooded paddy test, visual plant response rating 0-100; details: 250 g ai/ha, Flood, applied to paddy water, evaluated after 13 days
Outline: (§4)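 Plants were grown to the 2-leaf stage, then pots were flooded to 3 cm above the soil and compound was applied directly to the paddy water, with that depth kept throughout.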

[25] = test system: ducksalad (Heteranthera limosa); experiment: as above; details: 250 g ai/ha, Flood, applied to paddy water, evaluated after 13 days
Outline: as §4

rice (Oryza sativa) = experiment: as above; details: 250 g ai/ha, Flood, applied to paddy water, evaluated after 13 days
Outline: as §4

[26] = test system: sedge, umbrella (small-flower umbrella sedge, Cyperus difformis); experiment: as above; details: 250 g ai/ha, Flood, applied to paddy water, evaluated after 13 days
Outline: as §4

[27] = 62 g ai/ha, 0 = no effect, 100 = complete control
[28] = 62 g ai/ha, postemergence, 10 days, 0 = no effect, 100 = complete control
[29] = Postemergence, 16 g ai/ha, greenhouse 10 days, 0 no effect, 100 complete control

## CC(C)OC(=O)C1=CCC(NC(=O)C2(C)CN(c3cc(Cl)cc(Cl)c3)C(=O)O2)C1 (stereo not drawn) [Compound 105]
[1]; 16 g ai/ha, 0 to 100 scale
  Barnyardgrass plant response rating: 0
[1]; [27]
  Barnyardgrass plant response rating (0-100): 0
[2]; 16 g ai/ha, 0 to 100 scale
  Blackgrass plant response rating: 0
[2]; [27]
  Blackgrass plant response rating (0-100): 0
Corn (Zea mays) [3]; 16 g ai/ha, 0 to 100 scale
  Corn plant response rating: 0
Corn (Zea mays) [3]; [27]
  Corn plant response rating (0-100): 0
[4]; 16 g ai/ha, 0 to 100 scale
  Foxtail, Green plant response rating: 0
[4]; [27]
  Foxtail, Green plant response rating (0-100): 0
Kochia (Bassia scoparia) [5]; 16 g ai/ha, 0 to 100 scale
  Kochia plant response rating: 0
Kochia (Bassia scoparia) [5]; [27]
  Kochia plant response rating (0-100): 0
[6]; 16 g ai/ha, 0 to 100 scale
  Oat, Wild plant response rating: 0
[6]; [27]
  Oat, Wild plant response rating (0-100): 0
[7]
  Pigweed, Palmer plant response rating (0-100): 10
[8]; 16 g ai/ha, 0 to 100 scale
  Ragweed plant response rating: 0
[8]; [27]
  Ragweed plant response rating (0-100): 0
[9]; 16 g ai/ha, 0 to 100 scale
  Ryegrass, Italian plant response rating: 0
[9]; [27]
  Ryegrass, Italian plant response rating (0-100): 0
Soybean (Glycine max) [10]; 16 g ai/ha, 0 to 100 scale
  Soybean plant response rating: 0
Soybean (Glycine max) [10]; [27]
  Soybean plant response rating (0-100): 0
[11]; 16 g ai/ha, 0 to 100 scale
  Wheat plant response rating: 0
[11]; [27]
  Wheat plant response rating (0-100): 0
[12]; [28]
  Barnyardgrass plant response rating (0-100): 30
[12]; [29]
  Barnyardgrass plant response rating (0 to 100 scale): 0
[13]; [28]
  Blackgrass plant response rating (0-100): 10
[13]; [29]
  Blackgrass plant response rating (0 to 100 scale): 0
Corn (Zea mays) [14]; [28]
  Corn plant response rating (0-100): 10
Corn (Zea mays) [14]; [29]
  Corn plant response rating (0 to 100 scale): 0
[15]; [28]
  Foxtail, Green plant response rating (0-100): 0
[15]; [29]
  Foxtail, Green plant response rating (0 to 100 scale): 0
[16]
  Horseweed plant response rating (0-100): 20
Kochia (Bassia scoparia) [17]; [28]
  Kochia plant response rating (0-100): 0
Kochia (Bassia scoparia) [17]; [29]
  Kochia plant response rating (0 to 100 scale): 0
[18]; [28]
  Oat, Wild plant response rating (0-100): 0
[18]; [29]
  Oat, Wild plant response rating (0 to 100 scale): 0
[19]; [28]
  Pigweed, Palmer plant response rating (0-100): 10
[19]; [29]
  Pigweed, Palmer plant response rating (0 to 100 scale): 0
[20]; [28]
  Ragweed plant response rating (0-100): 0
[20]; [29]
  Ragweed plant response rating (0 to 100 scale): 0
[21]; [28]
  Ryegrass, Italian plant response rating (0-100): 0
[21]; [29]
  Ryegrass, Italian plant response rating (0 to 100 scale): 0
Soybean (Glycine max) [22]; [28]
  Soybean plant response rating (0-100): 0
Soybean (Glycine max) [22]; [29]
  Soybean plant response rating (0 to 100 scale): 0
[23]; [28]
  Wheat plant response rating (0-100): 0
[23]; [29]
  Wheat plant response rating (0 to 100 scale): 0
[24]
  Plant response rating, Barnyardgrass (0 to 100 scale, 0 is no effect and 100 is complete control): 0
[25]
  Plant response rating, Ducksalad (0 to 100 scale, 0 is no effect and 100 is complete control): 0
Rice (Oryza sativa)
  Plant response rating, Rice (0 to 100 scale, 0 is no effect and 100 is complete control): 0
[26]
  Plant response rating, Sedge, Umbrella (0 to 100 scale, 0 is no effect and 100 is complete control): 0
